Literature values, collected in patent US20250235394A1, “BIOFILM-TARGETING NANOPARTICLES TO INCREASE THE […] OF FLUORIDE” (The Regents of The University of Michigan, priority 2021, published 2025).

Conditions: solution containing 226 ppm F as CaF2

[Ca+2].[F-].[F-] [CaF2, calcium fluoride]
precipitation in solution: precipitation of CaF2 promptly occurs
